Measured values published in patent US8809372B2, “Pyridine derivatives” (Endo Pharmaceuticals, Inc., priority 2011, dated 2014).

Tests used:
[1] = molecular target: T1, rat CYP17 (rat testicular microsomes) (Rattus norvegicus, UniProt P11715); experiment: CYP17 inhibition assay in rat testicular microsomes; type: biochemical
T1 construct: Rat testis tissue was collected and disrupted with 30 strokes of a glass homogenizer; from tissue; host or cells: rat testis (microsomes)
T1 sequence (P11715 1-507): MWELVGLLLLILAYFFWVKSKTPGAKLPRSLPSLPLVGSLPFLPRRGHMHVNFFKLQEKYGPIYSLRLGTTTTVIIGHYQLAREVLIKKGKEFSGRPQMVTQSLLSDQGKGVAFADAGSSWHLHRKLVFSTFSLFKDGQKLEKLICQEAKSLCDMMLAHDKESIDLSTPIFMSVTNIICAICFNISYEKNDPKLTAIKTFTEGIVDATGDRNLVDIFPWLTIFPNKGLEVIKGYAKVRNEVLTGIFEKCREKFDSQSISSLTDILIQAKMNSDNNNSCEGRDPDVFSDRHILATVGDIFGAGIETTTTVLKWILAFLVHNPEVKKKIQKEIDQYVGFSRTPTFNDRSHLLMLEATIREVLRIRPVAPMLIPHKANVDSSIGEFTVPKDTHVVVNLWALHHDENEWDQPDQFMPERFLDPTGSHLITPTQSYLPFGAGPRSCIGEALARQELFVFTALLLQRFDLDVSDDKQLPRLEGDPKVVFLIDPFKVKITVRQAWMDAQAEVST
Protocol: CYP17 Inhibition Assay in Rat Testicular Microsomes (Rat CYP17) or Yeast Microsome Overexpressing Human CYP17
1. NADPH (Sigma): A working stock was prepared by adding 25 μL of 6.5 mM NADPH in each tube. The final concentration of NADPH used in the assay was 325 μM.
2. Potassium Phosphate Buffer: One molar (1M) solutions of K2HPO4 and KH2PO4 were prepared. Eight mL of the 1 M KH2PO4 and 1.98 mL of the 1 M K2HPO4 were combined and the pH was adjusted to 7.4.
3. ^3H3-17α-hydroxypregnenolone (American Radiolabeled Chemicals, Inc., stock 1 μCi/μL): A 1:1 dilution of ^3H3-17α-hydroxypregnenolone in ethanol was prepared by combining 100 μL ^3H3-17α-hydroxypregnenolone+100 μL ethanol for one complete 96 well plate. For the reaction, 2 μL of the diluted ^3H3-17α-hydroxypregnenolone was added in each tube, i.e., 1 μCi/reaction. 4. Microsome Isolation Buffer: The microsome isolation buffer was prepared by combining 250 mM Sucrose, 5 mM EDTA, 10 mM Tris HCl, 4 mM DTT, and adjusting to pH 7.4. 5. TEG Buffer: The TEG buffer was prepared by combining 50 mM Tris HCl, 1 mM EDTA, and 20% Glycerol. 6. Rat Testicular Microsomes: Rat testis tissue was collected and disrupted with 30 strokes of a glass homogenizer on ice with 250 μL of microsome isolation buffer, followed by centrifugation at 10,000 g for 10 minutes at 4° C. The supernatant was collected and centrifuged at 100,000 g for 45 minutes at 4° C. The pellet was dissolved in TEG Buffer and the protein was quantified. The homogenized microsome samples were then frozen at −80° C. • 7. Yeast Microsomes which overexpress the human CYP17 enzyme were obtained from Premas Biotech, India.
Potassium phosphate buffer (470 μL) was prepared as described above and was added to each well of a deep well plate. The test compound was diluted using a TECAN liquid handler and 5 μL of diluted compound was transferred to each well (96 deep well/1 mL). A solution (25 μL) of 6.5 mM NADPH was added (final concentration of 325 μM in the assay). ^3H3-17α-hydroxypregnenolone (2 μL of the working stock) was added to each tube. The plates were then pre-incubated for 15 minutes at 37° C. Following the pre-incubation, either 5 μL rat testicular microsomes (150-160 μg) or 5 μL of yeast microsomes expressing human CYP17 (1.7 pmol), was added. Incubation was at 37° C. for 60 minutes in the presence of oxygen. The plates were then placed in ice and chloroform (500 μL) was added, mixed well and incubated at 4° C. for 20 minutes. The plates were then centrifuged at 1000 rpm for 15 minutes at 4° C.
A portion (300 μL) of the aqueous solution was collected and mixed with a 5% aqueous suspension of activated charcoal (300 μL). The plates were then incubated at 4° C. for 30 minutes, after which the plates were centrifuged at 1000 rpm for 15 minutes at 4° C. From this, 125 μL of the aqueous solution was collected and plated into a 96 well plate. Microscint™ 40 [125 μL, Perkin-Elmer; containing a mixture of a polymer based on alkylphenolethoxylate (20-40%), diethanolamine-phosphoric acid ester ammonium salt (10-20%), sodium dioctyl sulphosuccinate (2.5-10%), triethyl phosphate (2.5-10%), 3,6-dimethyl-4-octyne-3,6-diol (≦2.5%), a polymer based on nonylphenolethoxylate (≦2.5%), diisopropyl naphthalene isomers (40-60%), 2,5-diphenyloxazole (≦2.5%), and 9,10-dimethylanthracene] was added and mixed well. After 30 minutes of incubation, the samples were analyzed with a MicroBeta® Trilux microplate liquid scintillation counter and luminometer (Perkin-Elmer).

[2] = molecular target: T2, human CYP17 in H295R adrenocortical carcinoma cells (Homo sapiens, UniProt P05093); experiment: Cell-based human CYP17 inhibition assay, H295R cells; details: 16 hours, read-out: CYP17 (human H295R adrenal cells)
T2 construct: H295R Adrenocortical carcinoma cells [NCI-H295A, ATCC Number CRL-2128, American Type Culture Collection; host or cells: H295R adrenocortical carcinoma cells
T2 sequence (P05093 1-508): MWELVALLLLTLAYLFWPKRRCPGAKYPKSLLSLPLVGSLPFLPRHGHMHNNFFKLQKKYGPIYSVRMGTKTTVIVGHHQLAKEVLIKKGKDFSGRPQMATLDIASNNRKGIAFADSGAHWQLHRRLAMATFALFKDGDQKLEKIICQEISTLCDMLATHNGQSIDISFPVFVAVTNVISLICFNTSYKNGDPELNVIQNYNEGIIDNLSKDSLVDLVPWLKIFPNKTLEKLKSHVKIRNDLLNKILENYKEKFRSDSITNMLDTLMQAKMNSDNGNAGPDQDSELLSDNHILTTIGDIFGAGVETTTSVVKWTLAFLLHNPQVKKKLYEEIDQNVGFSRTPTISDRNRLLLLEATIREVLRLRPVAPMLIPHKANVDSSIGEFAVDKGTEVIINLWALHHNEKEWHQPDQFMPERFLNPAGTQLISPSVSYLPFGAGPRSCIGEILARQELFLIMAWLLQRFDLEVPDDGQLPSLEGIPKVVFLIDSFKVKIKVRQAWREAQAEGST
Protocol: Cell-Based Human CYP17 Inhibition Assay
1. H295R Adrenocortical Carcinoma Cells and Growth Media: The media for the H295R Adrenocortical carcinoma cells [NCI-H295A, ATCC Number CRL-2128, American Type Culture Collection, Manassas, Va., US] (500 mL) was a DMEM:F12 Mix 1:1 with 5% (2 mL) BD Nu Serum; 1% (5 mL) ITS+Premix [BD Biosciences] and 1% Penstrep. 2. LNCap-CYP17 Cells and Growth Media: Full length hCYP17a1 gene (NCBI Reference Sequence: NM_000102.3) was cloned in pcDNA3.1(+) vector between HindIII and XhoI site. The pcDNA3.1(+) vector contains the Neomycin resistance gene and was used for selection of stable cell line. The hCYP17a1 containing pcDNA3.1(+) was transfected into LNCap cells to create the LNCap-CYP17 cell line. The media for the LNCaP-CYP17 cells was RPMI 1640, 10% FBS, 1% PenStrep, Geneticin 400 μg/mL.
The H295R cells or LNCaP-hCYP17 cells were subcultured and 30,000 cells per well were seeded in a poly-d lysine plate and incubated overnight at 37° C. The next day the media was removed and 200 μL of fresh media with ^3H3-17α-hydroxy-pregnenolone (1:1000) was added. 50 μL of serially diluted compounds from a 5× plate (5 times the final desired concentration) was added. The working concentration range for active, new compounds started from a high concentration of 10 μM with 3-fold serial dilutions generating up to 10 concentrations. The serial dilution in the 100× plate (in DMSO) and the stamping of a 5× plate (in media) from the 100× plate were carried out using a TECAN liquid handling device.
The plates were incubated overnight (16 hours) at 37° C. After 16 hours, the media was removed (approximately 220 μL) and an equal amount of chloroform was added, mixed and incubated for 30 minutes at 4 degrees. The plate was centrifuged at 4000 rpm for 15 minutes at 4° C., following which the top aqueous layer was carefully removed and added into a new deep well plate. An equal volume of activated 5% charcoal was added, mixed and incubated for 30 minutes at 4° C. The plate was then centrifuged at 4000 rpm for 15 minutes at 4° C. and the top layer carefully separated, avoiding any charcoal contamination, and placed in a white, clear bottom plate (plate cat #3610, Corning Life Sciences). An equal volume of Microscint™ 40 was added and mixed well. Following the incubation for 30 minutes, readings for the radiotracer were taken using a Microbeta® trilux.

Row | SMILES | IC50 [1] [nM] | IC50 [2] [nM]
1 | CCC(O)(c1ccncc1)c1nnc(-c2ccc(F)cc2)s1 (stereo not drawn) [Example 21, 1-(5-(4-fluorophenyl)-1,3,4-thiadiazol-2-yl)-1-(pyridin-4-yl)propan-1-ol] | < 50 | 201 to 10000
2 | CC(O)(c1ccncc1)c1cnc(-c2ccc(F)cc2)o1 (stereo not drawn) [Example 23, 1-(2-(4-Fluorophenyl)oxazol-5-yl)-1-(pyridin-4-yl)ethanol] | < 50 | 201 to 10000
3 | CCC(O)(c1ccncc1)c1cnc(-c2cn[nH]c2)s1 (stereo not drawn) [Example 18, 1-(2-(1H-Pyrazol-4-yl)thiazol-5-yl)-1-(pyridin-4-yl)propan-1-ol] | < 50 | < 50
4 | CC(O)(c1ccncc1)c1cnc(-c2ccc(F)c(C#N)c2)s1 (stereo not drawn) [Example 40, 2-fluoro-5-(5-(1-hydroxy-1-(pyridin-4-yl)ethyl)thiazol-2-yl)benzonitrile] | < 50 | < 50
5 | CC(O)(c1ccncc1)c1cnc(-c2ccc(C#N)c(Cl)c2)s1 (stereo not drawn) [Example 38, 2-chloro-4-(5-(1-hydroxy-1-(pyridin-4-yl)ethyl)thiazol-2-yl)benzonitrile] | < 50 | 50 to 200
6 | CCC(O)(c1ccncc1)c1ncc(-c2ccc(F)cc2)s1 (stereo not drawn) [Example 13, 1-(5-(4-Fluorophenyl)thiazol-2-yl)-1-(pyridin-4-yl)propan-1-ol] | < 50 | 201 to 10000
7 | CC(O)(c1ccncc1)c1cnc(-c2ccc(Cl)c(C(F)(F)F)c2)s1 (stereo not drawn) [Example 39, 1-(2-(4-chloro-3-(trifluoromethyl)phenyl)thiazol-5-yl)-1-(pyridin-4-yl)ethanol] | < 50 | 50 to 200
8 | COc1ccc(-c2ccc(C(C)(O)c3ccncc3)nc2)cc1F (stereo not drawn) [Example 6, 1-(5-(3-fluoro-4-methoxyphenyl)-pyridin-2-yl)-1-(pyridin-4-yl)ethanol] | < 50 | 50 to 200
9 | CC(O)(c1ccncc1)c1ccc(-c2ccc(C#N)cc2)cn1 (stereo not drawn) [Example 10, 4-(6-(1-hydroxy-1-(pyridin-4-yl)-ethyl)pyridin-3-yl)-benzonitrile] | < 50 | 201 to 10000
10 | CC(O)(c1ccncc1)c1cnc(-c2ccc(C#N)c(C(F)(F)F)c2)s1 (stereo not drawn) [Example 30, 4-(5-(1-Hydroxy-1-(pyridin-4-yl)ethyl)thiazol-2-yl)-2-(trifluoro-methyl)benzonitrile] | < 50 | 50 to 200

Continued, values first:

Row | IC50 [1] [nM] | IC50 [2] [nM] | SMILES
11 | < 50 | 50 to 200 | CC(O)(c1ccncc1)c1cnc(-c2ccc(C#N)cc2)s1 (stereo not drawn) [Example 56, 4-(5-(1-hydroxy-1-(pyridin-4-yl)ethyl)thiazol-2-yl)benzonitrile]
12 | < 50 | < 50 | CC(O)(c1ccncc1)c1cnc(-c2ccccc2)s1 (stereo not drawn) [Example 51, 1-(2-phenylthiazol-5-yl)-1-(pyridin-4-yl)ethanol]
13 | < 50 | < 50 | CC(O)(c1ccncc1)c1cnc(-c2ccc(F)c(F)c2)s1 (stereo not drawn) [Example 44, 1-(2-(3,4-difluorophenyl)thiazol-5-yl)-1-(pyridin-4-yl)ethanol]
14 | 50 to 200 | 201 to 10000 | CCC(O)(c1ccncc1)c1ncc(-c2cn[nH]c2)o1 (stereo not drawn) [Example 57, 1-(5-(1H-pyrazol-4-yl)oxazol-2-yl)-1-(pyridin-4-yl)propan-1-ol]
15 | 50 to 200 | 201 to 10000 | CC(O)(c1ccncc1)c1cnc(-c2ccc(S(C)(=O)=O)cc2)s1 (stereo not drawn) [Example 45, 1-(2-(4-(methylsulfonyl)-phenyl)thiazol-5-yl)-1-(pyridin-4-yl)ethanol]
16 | 50 to 200 | 201 to 10000 | CC(O)(c1ccncc1)c1nsc(-c2ccc(F)cc2)n1 (stereo not drawn) [Example 53, 1-(5-(4-fluorophenyl)-1,2,4-thiadiazol-3-yl)-1-(pyridin-4-yl)ethanol]
17 | < 50 | < 50 | CC(O)(c1ccncc1)c1cnc(-c2ccc(Cl)c(C#N)c2)s1 (stereo not drawn) [Example 42, 2-chloro-5-(5-(1-hydroxy-1-(pyridin-4-yl)ethyl)thiazol-2-yl)benzonitrile]
18 | 50 to 200 | 201 to 10000 | CC(=O)NC(C)(c1ccncc1)c1cnc(-c2ccc(F)cc2)s1 (stereo not drawn) [Example 69, N-(1-(2-(4-Fluorophenyl)thiazol-5-yl)-1-(pyridin-4-yl)ethyl)acetamide]
